Measured values published in PMC9516332 (Frontiers in Oncology, 2022).
Read-outs that look alike come from different tables or passages of the source.

What was measured:
Assay in all cases: Kinase panel profiling at 1 µmol/L (MSA or IMAP), percentage inhibition
Type in all cases: biochemical
[1] = biological target: panel of 255 wild-type kinases (Homo sapiens, UniProt P21802); conditions: kinase FGFR2; 1 µmol/L single concentration; read-out: %-inhibition at 1 µmol/L, FGFR2
[2] = biological target: T1, panel of 255 wild-type kinases (Homo sapiens, UniProt P29322); conditions: kinase EPHA8; 1 µmol/L single concentration; read-out: %-inhibition at 1 µmol/L, EPHA8
T1 sequence (P29322 28-1005): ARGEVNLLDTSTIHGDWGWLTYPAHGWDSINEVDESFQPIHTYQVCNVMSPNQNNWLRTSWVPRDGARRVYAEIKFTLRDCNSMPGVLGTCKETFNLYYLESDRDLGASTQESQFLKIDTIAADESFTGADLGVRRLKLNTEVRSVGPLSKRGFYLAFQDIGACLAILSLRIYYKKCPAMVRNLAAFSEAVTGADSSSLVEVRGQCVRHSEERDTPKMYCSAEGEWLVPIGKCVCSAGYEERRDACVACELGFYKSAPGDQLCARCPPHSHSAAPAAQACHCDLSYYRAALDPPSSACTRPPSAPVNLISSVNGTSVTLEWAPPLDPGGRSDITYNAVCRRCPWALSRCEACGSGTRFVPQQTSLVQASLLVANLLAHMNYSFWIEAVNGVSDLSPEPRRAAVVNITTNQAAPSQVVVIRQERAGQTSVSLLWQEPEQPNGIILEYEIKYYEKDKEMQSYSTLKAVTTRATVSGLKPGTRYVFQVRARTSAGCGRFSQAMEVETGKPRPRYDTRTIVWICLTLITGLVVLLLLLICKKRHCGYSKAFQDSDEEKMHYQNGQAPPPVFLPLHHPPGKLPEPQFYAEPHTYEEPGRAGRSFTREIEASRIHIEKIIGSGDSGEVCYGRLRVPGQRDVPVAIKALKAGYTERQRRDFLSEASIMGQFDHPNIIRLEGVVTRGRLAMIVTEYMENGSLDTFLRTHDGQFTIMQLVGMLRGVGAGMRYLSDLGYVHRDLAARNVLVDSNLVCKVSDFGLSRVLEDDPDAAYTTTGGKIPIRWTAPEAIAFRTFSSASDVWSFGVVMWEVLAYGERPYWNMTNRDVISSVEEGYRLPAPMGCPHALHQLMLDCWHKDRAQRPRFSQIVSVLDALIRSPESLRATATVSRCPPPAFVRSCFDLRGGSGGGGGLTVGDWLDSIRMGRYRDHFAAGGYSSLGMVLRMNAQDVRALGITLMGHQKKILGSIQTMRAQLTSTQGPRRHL

[3] = biological target: panel of 255 wild-type kinases (Homo sapiens, UniProt Q9UPE1); conditions: MSSK1; 1 µmol/L single concentration; read-out: %-inhibition, MSSK1
[4] = biological target: T2, panel of 255 wild-type kinases (Homo sapiens, UniProt P21709); conditions: kinase EPHA1; 1 µmol/L single concentration; read-out: %-inhibition at 1 µmol/L, EPHA1
T2 sequence (P21709 26-976): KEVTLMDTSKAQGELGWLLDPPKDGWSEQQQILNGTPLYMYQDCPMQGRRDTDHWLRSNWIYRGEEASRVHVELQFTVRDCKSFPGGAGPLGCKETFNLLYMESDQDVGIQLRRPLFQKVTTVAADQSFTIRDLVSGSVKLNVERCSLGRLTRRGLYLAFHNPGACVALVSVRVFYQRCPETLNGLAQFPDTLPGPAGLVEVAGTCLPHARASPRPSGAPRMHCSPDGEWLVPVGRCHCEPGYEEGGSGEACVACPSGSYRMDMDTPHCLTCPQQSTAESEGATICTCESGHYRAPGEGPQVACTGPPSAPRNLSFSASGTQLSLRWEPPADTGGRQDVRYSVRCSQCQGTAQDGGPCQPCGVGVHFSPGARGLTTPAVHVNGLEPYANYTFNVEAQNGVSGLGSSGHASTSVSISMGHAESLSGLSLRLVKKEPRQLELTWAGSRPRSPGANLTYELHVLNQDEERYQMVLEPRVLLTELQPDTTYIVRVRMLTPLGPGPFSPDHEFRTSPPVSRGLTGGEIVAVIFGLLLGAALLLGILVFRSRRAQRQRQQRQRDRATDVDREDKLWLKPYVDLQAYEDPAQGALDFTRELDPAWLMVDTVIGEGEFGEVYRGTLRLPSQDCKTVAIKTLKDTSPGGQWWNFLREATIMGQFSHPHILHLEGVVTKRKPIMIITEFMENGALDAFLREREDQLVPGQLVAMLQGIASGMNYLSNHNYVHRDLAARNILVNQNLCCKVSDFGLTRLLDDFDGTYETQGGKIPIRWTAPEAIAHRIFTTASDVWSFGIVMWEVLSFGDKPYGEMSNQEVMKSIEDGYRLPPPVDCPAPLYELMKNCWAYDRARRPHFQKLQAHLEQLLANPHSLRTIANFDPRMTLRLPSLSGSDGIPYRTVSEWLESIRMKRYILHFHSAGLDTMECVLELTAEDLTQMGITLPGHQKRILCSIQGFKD

[5] = biological target: panel of 255 wild-type kinases (Homo sapiens, UniProt Q16654); conditions: kinase PDHK4; 1 µmol/L single concentration; read-out: %-inhibition at 1 µmol/L, PDHK4
[6] = biological target: T3, panel of 255 wild-type kinases (Homo sapiens, UniProt P42680); conditions: read-out: %-inhibition at 1 µmol/L, TEC
T3 sequence (P42680 1-631): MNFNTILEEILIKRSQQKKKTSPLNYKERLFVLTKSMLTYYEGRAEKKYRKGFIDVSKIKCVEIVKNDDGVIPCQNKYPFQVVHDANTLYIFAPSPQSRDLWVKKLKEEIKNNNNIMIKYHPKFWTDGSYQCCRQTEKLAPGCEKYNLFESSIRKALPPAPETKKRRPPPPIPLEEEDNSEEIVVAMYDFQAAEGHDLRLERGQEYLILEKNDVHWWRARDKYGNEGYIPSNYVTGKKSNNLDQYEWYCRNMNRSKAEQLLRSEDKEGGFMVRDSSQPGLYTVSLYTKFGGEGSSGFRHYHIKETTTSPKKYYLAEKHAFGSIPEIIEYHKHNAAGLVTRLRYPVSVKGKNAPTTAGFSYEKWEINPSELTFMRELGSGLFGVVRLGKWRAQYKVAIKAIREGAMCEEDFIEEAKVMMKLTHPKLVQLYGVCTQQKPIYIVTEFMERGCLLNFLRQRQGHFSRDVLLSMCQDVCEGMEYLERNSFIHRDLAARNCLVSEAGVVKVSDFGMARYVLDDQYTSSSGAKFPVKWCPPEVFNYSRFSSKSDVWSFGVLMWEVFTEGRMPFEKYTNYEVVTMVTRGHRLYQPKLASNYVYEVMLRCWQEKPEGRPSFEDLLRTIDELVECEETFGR

inhibition at 1 µM ([6]; kinase TEC, 1 µmol/L single concentration)	SMILES	inhibition at 1 µM [1]	inhibition at 1 µM [2]	inhibition at 1 µM [3]	inhibition at 1 µM [4]	inhibition at 1 µM [5]	inhibition at 1 µM [6]
18%	Cc1cc(Nc2ncnc3ccc(NC4=NC(C)(C)CO4)cc23)ccc1Oc1ccn2ncnc2c1 [tucatinib]	6%	-14%	1.14%	21%	7.57%	–
–	C=CC(=O)N1CCC([C@@H]2CCNc3c(C(N)=O)c(-c4ccc(Oc5ccccc5)cc4)nn32)CC1 [zanubrutinib]	2.54%	-8%	-2.31%	-0.68%	0.136%	96%
